Results on 17 compounds are retold here after patent US12319697B2, “Process for preparing imidazole derivatives” (Bayer Aktiengesellschaft, priority 2018, dated 2025).

A short description of data set [1]: log P[n] by reversed-phase HPLC (C18), LC-UV in the neutral range, EEC Directive 79/831 Annex V.A8. The following applies: 79 mg/l ammonium carbonate in water and acetonitrile, gradient 10% to 95% acetonitrile; for chromatographic logP: reversed-phase HPLC column (C18). The data set is classed as physicochemical. Here is the method:
(§1) The log P values were determined according to EEC Directive 79/831 Annex V.A8 by HPLC (high-performance liquid chromatography) on a reversed-phase column (C18) using the following methods: The log P[a] value is determined by LC-UV measurement in the acidic range using 0.9 ml/1 formic acid in water and 1.0 ml/1 formic acid in acetonitrile as mobile phases (linear gradient from 10% acetonitrile to 95% acetonitrile). The log P[n] value is determined by LC-UV measurement in the neutral range using 79 mg/l ammonium carbonate in water and acetonitrile as mobile phases (linear gradient from 10% acetonitrile to 95% acetonitrile). Calibration was carried out using a homologous series of straight-chain alkan-2-ones (having 3 to 16 carbon atoms) with known log P values. The values between successive alkanones are determined by linear regression.

Data set [2] is described as follows: log P[a] by reversed-phase HPLC (C18), LC-UV in the acidic range, EEC Directive 79/831 Annex V.A8. The data set is classed as physicochemical. The following applies: 0.9 ml/l formic acid in water and 1.0 ml/l formic acid in acetonitrile, gradient 10% to 95% acetonitrile; for chromatographic logP: reversed-phase HPLC column (C18). As to the method: as §1, with “acetonitrile).” for “acetonitrile). The log P[n] value is determined by LC-UV measurement in the neutral range using 79 mg/l ammonium carbonate in water and acetonitrile as mobile phases (linear gradient from 10% acetonitrile to 95% acetonitrile).”

For the compound `CCSc1c(-c2nc3cc(SC(F)(F)F)nnc3n2C)nc(-c2ccc(Cl)cc2)n1C`, the chromatographic logP was 4.34 in data set [1] and 4.51 in data set [2].
For `CCSc1c(-c2nc3cc(C(F)(F)C(F)(F)F)nnc3n2C)nc(-c2ccc(Cl)cc2)n1C`, in that order: 4.6 and 4.82.
For `CCSc1c(-c2nc3cc(SC(F)(F)F)nnc3n2C)nc(C2CC2)n1C`, in that order: 3.4 and 3.5.
For `CCSc1c(-c2nc3cc(C(F)(F)C(F)(F)F)nnc3n2C)nc(C2CC2)n1C`, in that order: 3.75 and 3.85.
As for `CCSc1c(-c2nc3cc(C(F)(F)C(F)(F)F)nnc3n2C)nc(-c2ccc(Cl)s2)n1C`, the figures for the chromatographic logP in data set [1] and in data set [2] were 4.92 and 5.14, respectively.
Turning to `CCSc1c(-c2nc3cc(C(F)(F)C(F)(F)F)nnc3n2C)nc(-c2ccc(Cl)cn2)n1C`, the chromatographic logP in data set [1] was 4.66; in data set [2], 5.25.
For `CCSc1c(-c2nc3cc(C(F)(F)F)nnc3n2C)ncn1C` [Example 1, 6-[5-(ethylsulfanyl)-1-methyl-1H-imidazol-4-yl]-7-methyl-3-(trifluoromethyl)-7H-imidazo[4,5-c]pyridazine], in that order: 2.37 and 2.26.
Take `CCSc1c(-c2nc3cc(C(F)(F)F)nnc3n2C)nc(-c2ccc(Cl)cc2)n1C` [Example 2, 6-[2-(4-chlorophenyl)-5-(ethylsulfanyl)-1-methyl-1H-imidazol-4-yl]-7-methyl-3-(trifluoromethyl)-7H-imidazo[4,5-c]pyridazine]: the “log P[n]” value in data set [1] (listed as Comparative Example) was 4.07. Moreover, the chromatographic logP in data set [1] came to 4.08; in data set [2], 4.23. Also, in data set [2] (listed as Comparative Example), the “log P[a]” value is 4.35.
On to `CCSc1c(-c2nc3cc(C(F)(F)C(F)(F)F)nnc3n2C)ncn1C` [Example 3, 6-[5-(ethylsulfanyl)-1-methyl-1H-imidazol-4-yl]-7-methyl-3-(pentafluoroethyl)-7H-imidazo[4,5-c]pyridazine], for which the chromatographic logP in data set [1] is 2.86; in data set [2], 2.88.
For `CCS(=O)(=O)c1c(-c2nc3cc(C(F)(F)C(F)(F)F)nnc3n2C)ncn1C` [Example 4, 6-[5-(ethylsulfonyl)-1-methyl-1H-imidazol-4-yl]-7-methyl-3-(pentafluoroethyl)-7H-imidazo[4,5-c]pyridazine], in that order: 2.21 and 2.2.
As for `CCSc1c(-c2nc3cc(C(F)(F)C(F)(F)F)nnc3n2C)nc(Br)n1C` [Example 5, 6-[2-bromo-5-(ethylsulfanyl)-1-methyl-1H-imidazol-4-yl]-7-methyl-3-(pentafluoroethyl)-7H-imidazo[4,5-c]pyridazine], the chromatographic logP in data set [2] was 3.76.
`CCSc1c(-c2nc3cc(C(F)(F)C(F)(F)F)ncc3n2C)ncn1C` [Example 6, 2-[5-(ethylsulfanyl)-1-methyl-1H-imidazol-4-yl]-3-methyl-6-(pentafluoroethyl)-3H-imidazo[4,5-c]pyridine]: the chromatographic logP in data set [1] was 2.71; in data set [2], 2.7.
For `CCSc1c(-c2nc3cc(Br)cnc3n2C)nc(C2CC2)n1C` [Example 7, 6-bromo-2-[2-cyclopropyl-5-(ethylsulfanyl)-1-methyl-1H-imidazol-4-yl]-3-methyl-3H-imidazo[4,5-b]pyridine], in that order: 3.23 and 2.92.
For `CCSc1c(I)ncn1C` [Example 8 Step 1, 5-(ethylsulfanyl)-4-iodo-1-methyl-1H-imidazole], the values for the chromatographic logP in data set [1] and in data set [2] were 1.91 and 1.61, respectively.
`CCSc1c(I)nc(Br)n1C` [Example 8 Step 2, 2-bromo-5-(ethylsulfanyl)-4-iodo-1-methyl-1H-imidazole]: the chromatographic logP amounted to 2.68 in data set [1] and 2.77 in data set [2].
On to `Cn1cnc2cc(C(F)(F)F)ncc21` [Example 8 Step 3, 3-methyl-6-(trifluoromethyl)-3H-imidazo[4,5-c]pyridine], for which the chromatographic logP in data set [1] came to 1.1; in data set [2] it was 1.04.
On to `CCSc1c(-c2nc3cc(C(F)(F)F)ncc3n2C)nc(Br)n1C` [Example 8, 2-[2-bromo-5-(ethylsulfanyl)-1-methyl-1H-imidazol-4-yl]-3-methyl-6-(trifluoromethyl)-3H-imidazo[4,5-c]pyridine], for which the chromatographic logP in data set [1] stood at 2.85; in data set [2], 3.04.
